Data set [1] deals with Caco-2 tubules. Briefly: Loss of barrier function of gut tubule (Caco-2) exposed to aspirin (TRITC-dextran 150 kDa). The class given is cell-based, human. The following applies: for loss of barrier integrity: imaged every hour for 24 hours. The text has this:
FIG. 11 depicts the loss of barrier function of a gut tubule exposed to aspirin. […] However, the lack of data on concentrations with a maximum response hinders accurate EC50 estimation.

Data set [2] deals with MDCK tubules. The data set is classed as cell-based, canine. The text has this: The 3 lane OrganoPlate® offers the unique possibility to add a compound from only the apical or the basolateral side of the tubular structure. […] Actively transported compounds can have directionality in the trans-cellular transport, as is for example the situation in the renal proximal tubules, where moving compounds specifically from the apical side of the tube to the basolateral side, or the other way around, is part of the renal filtering function. This implies toxic compounds that are actively transported by the proximal tubule cells can have a different effect depending on the location of exposure. The anti-cancer drug cisplatin is taken up by cells by the OCT-2 transporter that is expressed on the basal side of the epithelial monolayer. MDCK cells were seeded in the top channel of a 200 μm 3 lane OrganoPlate® against a collagen I ECM at 10E6 cells/mL. Three days after seeding MDCK tubules were exposed to increasing concentrations of cisplatin from either the apical or basal side by replacing the medium either in the top medium channel, or in the bottom medium channel, with medium with cisplatin. At the start of the exposure the medium in the top channel was also supplied with a fluorescent leakage marker, FITC-dextran 150 kDa.

For data set [3], the system named is LLC-PK1 tubules. The data set is described as follows: Barrier integrity assay, LLC-PK1 tubules with staurosporin exposure (FITC-dextran 150 kDa leakage). The data set is classed as cell-based, pig. The following applies: 0, 1, 5 or 10 μM in top perfusion channel, imaged every 15 min for 16 hours. As to the method: The integrity of a cellular barrier, cultivated for example as described in FIGS. 1 and 2, can be probed by replacing the medium in the perfusion channel by medium containing 500 μg/mL FITC-dextran 150 kDa (Sigma, 46946). A) If the cellular barrier is leak-tight the fluorescent signal will be contained in the perfusion channel, whereas in the microfluidic chip with no cells, just ECM in the gel channel, the fluorescent signal will enter the ECM and will saturate within minutes. The fluorescent signal in the perfusion and gel channel can be monitored real time using time-lapse fluorescent microscopy, as for example with the ImageXpress Micro (Molecular Devices). B) Fluorescent signal intensity of the FITC-dextran 150 kDa was quantified in the top perfusion channel and in the gel channel using FIJI analysis software (Schindelin, J.; Arganda-Carreras, I. & Frise, E. et al. (2012), “Fiji: an open-source platform for biological-image analysis”, Nature methods 9(7): 676-682, PMID 22743772). C) The intensity of the gel channel was divided by the intensity of the top perfusion channel and the ratio was plotted against the time after start of fluorescent reporter addition. Without a cellular barrier the ECM is saturated within minutes after dye addition whereas a ratio close to zero is maintained as long as the cellular barrier is intact. […]

Data set [4] concerns MDCK tubules. The data set is described as follows: Barrier integrity assay, MDCK tubules with staurosporin exposure (FITC-dextran 150 kDa leakage). The data set is classed as cell-based, canine. The following applies: 0, 1, 4, 7 or 10 μM in top perfusion channel, imaged every hour for 15 hours. As to the method:
MDCK (canine) cell line was seeded at 10*10^6 cells/mL in the top perfusion channel of a 400 μm 3-lane OrganoPlate® against a collagen I ECM (Cultrex, Amsbio, 3447-020-01, 4 mg/mL). 60 μL of medium was added to the medium inlet and outlet of the top perfusion channel. Plate was incubated on its side for 3 hours to allow cells to settle on top of the ECM. Three hours after seeding 60 μL medium was added to the medium inlet and outlet of the bottom perfusion channel and plate was placed on a rocker platform for continuous medium perfusion (angle 7°, tilt every 8 min). […] Volumes were 40 μL inlet/30 μL outlet in top perfusion channel, 0 μL inlet/0 μL outlet in the middle ECM channel, 20 μL inlet/20 μL outlet standard culture medium in the bottom perfusion channel. […]
Fluorescent signal intensity of the FITC-dextran 150 kDa was quantified in the top perfusion channel and in the gel channel of FIG. 4 using FIJI analysis software (Schindelin, J.; Arganda-Carreras, I. & Frise, E. et al. (2012), “Fiji: an open-source platform for biological-image analysis”, Nature methods 9(7): 676-682, PMID 22743772). […] The time-to-leakage value (e.g. 2 hours after compound addition) will have to be determined based on validation experiments to ensure maximal in vivo relevance. […]

Data set [5] deals with Caco-2 tubules. The data set is described as follows: Time-to-leak barrier integrity assay, human gut tubule (Caco-2) exposed to staurosporin (TRITC-dextran 150 kDa). The following applies: Caco-2 tubes; imaged every hour for 13 hours; normalized TRITC-dextran fluorescence.
Experimental: The Caco-2 cell line (Sigma, human colon carcinoma cells) was seeded in a 400 μm 3 lane OrganoPlate® at 10E6 cells/mL, placed on side for cell-ECM attachment for 2 hours, and then placed on a modified rocker platform for continuous medium perfusion. Three days after seeding leak-tightness of the Caco-2 tubules was tested by replacing the medium in the top perfusion channel with medium containing 0.25 mg/mL TRITC dextran 150 kDa. […] Medium in the top medium channel was replaced with medium with TRITC-dextran and increasing concentrations of aspirin. Plate was placed in the ImageXpress Micro XLS under temperature and CO2 controlled conditions and imaged for fluorescent (TRITC) signal every hour for 13 hours. A dose response curve can be extracted at every time point from the time-lapse of the exposed Caco-2 tubes. GraphPad Prism 6 (GraphPad Software Inc., La Jolla, Calif.) was used to fit the dose response curve based on nonlinear regression of the logarithm of the compound concentration versus the normalized fluorescence assuming a top and bottom plateau at 0 and 100% fluorescence.
Data set [6] concerns human proximal tubule cells (RPTEC). Briefly: Drug induced loss of barrier integrity of human kidney proximal tubule (RPTEC), Kaplan-Meier plot. The data set is classed as cell-based. The note with it: RPTEC tubules; increasing concentrations; imaged every hour for 60 hours; versus medium, vehicle control 1 and 2. An excerpt: After eight days in culture >95% of the seeded tubules were shown leak-tight by addition of FITC-dextran 150 kDa to the medium in the luminal compartment. Medium in the tubes was replaced with medium containing increasing concentrations of the renal toxicant amphotecerin B and the fluorescent FITC-dextran. […] IC indicates an inhibitor cocktail of 3 efflux transporter inhibitors.

For the compound `CC(=O)Oc1ccccc1C(=O)O` [aspirin], the “loss of barrier integrity” value in data set [1] (3.7 mM) was “loss of barrier integrity”; in data set [1] (12 mM (12.12 mM)) it was “clear loss of barrier integrity”; in data set [1] (40 mM), “clear loss of barrier integrity”. Also, the “exposure time at which a 50% effect was observed” value was determined as 20 h in data set [1] (12 mM) and 10 h in data set [1] (40 mM).
As for `N.N.[Cl][Pt][Cl]` [cisplatin], the “time-to-leak, tubes exposed from the basal side versus apical exposed tubes” value in data set [2] was “significantly earlier”.
Take `CN[C@@H]1C[C@H]2O[C@@](C)([C@@H]1OC)n1c3ccccc3c3c4c(c5c6ccccc6n2c5c31)C(=O)NC4` [staurosporin]: the “integrity of the LLC-PK1 barrier with increasing concentrations” value in data set [3] is given as “breaks at an earlier time point”. Moreover, the “integrity of the MDCK barrier with increasing concentrations” value in data set [4] is recorded as “breaks at an earlier time point”. The “dose response curve of barrier leakage with increasing exposure times” value in data set [5] was “shift towards lower compound concentrations”.
Regarding amphotecerin B, in data set [6], the “survival of tube integrity, exposed versus unexposed tubes” value is on record as “significant difference”.

For the origin of these results see US11662342B2, “Barrier function measurements” (MIMETAS B.V., priority 2015, dated 2023).
